Experimental data from ChEMBL document CHEMBL4507311, “Data for DCP probe A-1155463” (2021).

Tests used:
[1] = biological target: 5-hydroxytryptamine receptor 3A (Homo sapiens, UniProt P46098); assay: GPCRScan assay: inhibition of 5-HT3; set-up: radioligand conc. used [nm] 1.0 – 2.0, parental cells HEKT
[2] = biological target: Sigma intracellular receptor 2 (Homo sapiens, UniProt Q5BJF2); assay: GPCRScan assay: inhibition of Sigma 2; set-up: radioligand conc. used [nm] 5.0, parental cells HEKT
[3] = biological target: Ankyrin repeat and protein kinase domain-containing protein 1 (Homo sapiens) (UniProt Q8NFD2); details: Compound concentration 1000.0 nM
[4] = biological target: Tyrosine-protein kinase receptor UFO (Homo sapiens) (UniProt P30530); details: Compound concentration 1000.0 nM
[5] = biological target: Calcium/calmodulin-dependent protein kinase type 1D (Homo sapiens) (UniProt Q8IU85); details: Compound concentration 1000.0 nM
[6] = biological target: Calcium/calmodulin-dependent protein kinase type 1G (Homo sapiens) (UniProt Q96NX5); details: Compound concentration 1000.0 nM
[7] = biological target: Peripheral plasma membrane protein CASK (Homo sapiens) (UniProt O14936); details: Compound concentration 1000.0 nM
[8] = biological target: Cyclin-dependent kinase 2 (Homo sapiens) (UniProt P24941); details: Compound concentration 1000.0 nM
[9] = biological target: Cyclin-dependent kinase 9 (Homo sapiens) (UniProt P50750); details: Compound concentration 1000.0 nM
[10] = biological target: Serine/threonine-protein kinase Chk2 (Homo sapiens) (UniProt O96017); details: Compound concentration 1000.0 nM
[11] = biological target: Casein kinase II subunit alpha (Homo sapiens) (UniProt P68400); details: Compound concentration 1000.0 nM
[12] = test system: Epidermal growth factor receptor (Homo sapiens), P00533 [L858R]; details: Compound concentration 1000.0 nM
[13] = biological target: Receptor tyrosine-protein kinase erbB-2 (Homo sapiens) (UniProt P04626); details: Compound concentration 1000.0 nM
[14] = biological target: Serine/threonine-protein kinase/endoribonuclease IRE1 (Homo sapiens) (UniProt O75460); details: Compound concentration 1000.0 nM
[15] = test system: Receptor-type tyrosine-protein kinase FLT3 (Homo sapiens), P36888 [D835V]; details: Compound concentration 1000.0 nM
[16] = biological target: Tyrosine-protein kinase FRK (Homo sapiens) (UniProt P42685); details: Compound concentration 1000.0 nM
[17] = biological target: Mitogen-activated protein kinase kinase kinase kinase 1 (Homo sapiens) (UniProt Q92918); details: Compound concentration 1000.0 nM
[18] = biological target: Interleukin-1 receptor-associated kinase 3 (Homo sapiens) (UniProt Q9Y616); details: Compound concentration 1000.0 nM
[19] = biological target: Mitogen-activated protein kinase 8 (Homo sapiens) (UniProt P45983); details: Compound concentration 1000.0 nM
[20] = biological target: Serine/threonine-protein kinase 10 (Homo sapiens) (UniProt O94804); details: Compound concentration 1000.0 nM
[21] = biological target: Mitogen-activated protein kinase kinase kinase 1 (Homo sapiens) (UniProt Q13233); details: Compound concentration 1000.0 nM
[22] = biological target: MAP/microtubule affinity-regulating kinase 4 (Homo sapiens) (UniProt Q96L34); details: Compound concentration 1000.0 nM
[23] = biological target: Misshapen-like kinase 1 (Homo sapiens) (UniProt Q8N4C8); details: Compound concentration 1000.0 nM
[24] = biological target: Serine/threonine-protein kinase 4 (Homo sapiens) (UniProt Q13043); details: Compound concentration 1000.0 nM
[25] = biological target: Serine/threonine-protein kinase NLK (Homo sapiens) (UniProt Q9UBE8); details: Compound concentration 1000.0 nM
[26] = biological target: Serine/threonine-protein kinase PAK 1 (Homo sapiens) (UniProt Q13153); details: Compound concentration 1000.0 nM
[27] = biological target: Platelet-derived growth factor receptor beta (Homo sapiens) (UniProt P09619); details: Compound concentration 1000.0 nM
[28] = test system: Phosphatidylinositol 4,5-bisphosphate 3-kinase catalytic subunit alpha isoform (Homo sapiens), P42336 [H1047L]; details: Compound concentration 1000.0 nM
[29] = biological target: cGMP-dependent protein kinase 1 (Homo sapiens) (UniProt Q13976); details: Compound concentration 1000.0 nM
[30] = biological target: Serine/threonine-protein kinase PRP4 homolog (Homo sapiens) (UniProt Q13523); details: Compound concentration 1000.0 nM
[31] = biological target: Serine/threonine-protein kinase SIK1 (Homo sapiens) (UniProt P57059); details: Compound concentration 1000.0 nM
[32] = biological target: SRSF protein kinase 3 (Homo sapiens) (UniProt Q9UPE1); details: Compound concentration 1000.0 nM
[33] = biological target: Tyrosine-protein kinase SYK (Homo sapiens) (UniProt P43405); details: Compound concentration 1000.0 nM
[34] = biological target: Serine/threonine-protein kinase TAO1 (Homo sapiens) (UniProt Q7L7X3); details: Compound concentration 1000.0 nM
[35] = biological target: Serine/threonine-protein kinase WNK1 (Homo sapiens) (UniProt Q9H4A3); details: Compound concentration 1000.0 nM
[36] = biological target: D(1A) dopamine receptor (Homo sapiens) (UniProt P21728); details: Compound concentration 10.0 uM
[37] = biological target: Sodium-dependent noradrenaline transporter (Homo sapiens) (UniProt P23975); details: Compound concentration 10.0 uM
[38] = biological target: T1, Muscarinic acetylcholine receptor M4 (Homo sapiens) (UniProt P08173); details: Compound concentration 10.0 uM
T1 sequence (whole entry): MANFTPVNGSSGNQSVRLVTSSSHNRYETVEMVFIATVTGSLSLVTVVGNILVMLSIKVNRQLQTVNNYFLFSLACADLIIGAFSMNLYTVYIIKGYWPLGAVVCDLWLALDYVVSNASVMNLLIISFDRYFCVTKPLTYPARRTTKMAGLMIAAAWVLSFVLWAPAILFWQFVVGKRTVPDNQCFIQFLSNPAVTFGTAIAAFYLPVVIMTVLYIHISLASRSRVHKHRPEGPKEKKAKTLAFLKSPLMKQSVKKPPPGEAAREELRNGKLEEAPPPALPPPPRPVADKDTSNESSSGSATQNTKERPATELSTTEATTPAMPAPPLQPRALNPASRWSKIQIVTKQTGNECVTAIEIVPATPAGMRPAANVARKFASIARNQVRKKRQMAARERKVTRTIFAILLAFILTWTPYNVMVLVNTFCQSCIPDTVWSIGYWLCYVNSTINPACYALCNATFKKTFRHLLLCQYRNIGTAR

5-hydroxytryptamine receptor 3A, sequence (P46098 whole entry): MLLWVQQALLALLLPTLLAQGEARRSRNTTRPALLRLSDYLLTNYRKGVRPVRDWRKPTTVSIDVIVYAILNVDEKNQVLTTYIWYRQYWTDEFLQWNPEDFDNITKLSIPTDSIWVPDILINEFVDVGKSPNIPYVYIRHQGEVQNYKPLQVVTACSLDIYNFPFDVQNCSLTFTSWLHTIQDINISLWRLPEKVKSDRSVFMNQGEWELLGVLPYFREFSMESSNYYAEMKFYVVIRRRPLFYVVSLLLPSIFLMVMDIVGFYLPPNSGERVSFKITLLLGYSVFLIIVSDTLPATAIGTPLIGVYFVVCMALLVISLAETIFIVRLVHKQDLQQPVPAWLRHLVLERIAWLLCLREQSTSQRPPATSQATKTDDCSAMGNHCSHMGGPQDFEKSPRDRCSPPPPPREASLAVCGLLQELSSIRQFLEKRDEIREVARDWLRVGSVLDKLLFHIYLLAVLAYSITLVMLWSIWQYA
Serine/threonine-protein kinase 4 (Homo sapiens), sequence (Q13043 whole entry): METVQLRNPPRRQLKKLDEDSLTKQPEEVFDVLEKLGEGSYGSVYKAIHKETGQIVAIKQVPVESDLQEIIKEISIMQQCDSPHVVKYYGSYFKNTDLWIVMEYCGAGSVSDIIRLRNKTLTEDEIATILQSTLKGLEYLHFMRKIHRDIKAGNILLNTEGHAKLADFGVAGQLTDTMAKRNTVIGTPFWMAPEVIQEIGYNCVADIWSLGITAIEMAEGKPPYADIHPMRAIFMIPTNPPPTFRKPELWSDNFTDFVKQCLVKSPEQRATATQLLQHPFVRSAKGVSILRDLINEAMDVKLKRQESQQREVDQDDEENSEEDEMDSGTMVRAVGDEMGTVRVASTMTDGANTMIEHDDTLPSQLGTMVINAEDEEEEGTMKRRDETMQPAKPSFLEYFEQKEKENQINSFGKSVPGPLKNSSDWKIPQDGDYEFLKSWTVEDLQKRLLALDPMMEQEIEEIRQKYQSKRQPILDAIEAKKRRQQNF
Phosphatidylinositol 4,5-bisphosphate 3-kinase catalytic subunit alpha isoform (Homo sapiens), P42336 [H1047L], sequence (P42336 whole entry H1047L, canonical isoform): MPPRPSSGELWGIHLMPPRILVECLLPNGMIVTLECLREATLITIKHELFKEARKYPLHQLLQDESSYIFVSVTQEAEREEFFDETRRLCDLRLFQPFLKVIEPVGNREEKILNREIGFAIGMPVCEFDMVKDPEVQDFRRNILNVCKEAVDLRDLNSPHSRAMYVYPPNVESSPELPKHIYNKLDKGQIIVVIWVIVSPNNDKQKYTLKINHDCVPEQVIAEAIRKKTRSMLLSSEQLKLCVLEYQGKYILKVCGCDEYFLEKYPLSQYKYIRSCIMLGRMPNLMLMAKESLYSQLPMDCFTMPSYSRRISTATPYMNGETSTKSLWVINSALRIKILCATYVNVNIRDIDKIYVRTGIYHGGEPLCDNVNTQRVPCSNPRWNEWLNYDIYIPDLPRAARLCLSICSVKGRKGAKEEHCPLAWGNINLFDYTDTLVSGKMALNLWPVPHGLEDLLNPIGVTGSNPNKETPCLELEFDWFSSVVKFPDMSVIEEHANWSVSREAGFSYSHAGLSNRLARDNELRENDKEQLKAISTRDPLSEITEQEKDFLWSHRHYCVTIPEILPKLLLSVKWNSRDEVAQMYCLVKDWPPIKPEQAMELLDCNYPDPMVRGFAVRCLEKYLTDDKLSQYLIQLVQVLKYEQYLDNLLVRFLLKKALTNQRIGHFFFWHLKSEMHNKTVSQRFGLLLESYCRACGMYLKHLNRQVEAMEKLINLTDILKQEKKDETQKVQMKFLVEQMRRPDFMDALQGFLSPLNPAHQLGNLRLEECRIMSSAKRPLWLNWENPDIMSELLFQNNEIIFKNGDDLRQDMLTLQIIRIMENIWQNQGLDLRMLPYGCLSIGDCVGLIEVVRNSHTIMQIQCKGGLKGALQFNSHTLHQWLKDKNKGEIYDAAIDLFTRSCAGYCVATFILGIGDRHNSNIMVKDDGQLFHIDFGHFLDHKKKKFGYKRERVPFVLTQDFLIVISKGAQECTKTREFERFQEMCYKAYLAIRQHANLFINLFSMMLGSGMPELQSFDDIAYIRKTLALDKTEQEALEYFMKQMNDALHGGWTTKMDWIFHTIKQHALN
cGMP-dependent protein kinase 1 (Homo sapiens), sequence (Q13976 whole entry): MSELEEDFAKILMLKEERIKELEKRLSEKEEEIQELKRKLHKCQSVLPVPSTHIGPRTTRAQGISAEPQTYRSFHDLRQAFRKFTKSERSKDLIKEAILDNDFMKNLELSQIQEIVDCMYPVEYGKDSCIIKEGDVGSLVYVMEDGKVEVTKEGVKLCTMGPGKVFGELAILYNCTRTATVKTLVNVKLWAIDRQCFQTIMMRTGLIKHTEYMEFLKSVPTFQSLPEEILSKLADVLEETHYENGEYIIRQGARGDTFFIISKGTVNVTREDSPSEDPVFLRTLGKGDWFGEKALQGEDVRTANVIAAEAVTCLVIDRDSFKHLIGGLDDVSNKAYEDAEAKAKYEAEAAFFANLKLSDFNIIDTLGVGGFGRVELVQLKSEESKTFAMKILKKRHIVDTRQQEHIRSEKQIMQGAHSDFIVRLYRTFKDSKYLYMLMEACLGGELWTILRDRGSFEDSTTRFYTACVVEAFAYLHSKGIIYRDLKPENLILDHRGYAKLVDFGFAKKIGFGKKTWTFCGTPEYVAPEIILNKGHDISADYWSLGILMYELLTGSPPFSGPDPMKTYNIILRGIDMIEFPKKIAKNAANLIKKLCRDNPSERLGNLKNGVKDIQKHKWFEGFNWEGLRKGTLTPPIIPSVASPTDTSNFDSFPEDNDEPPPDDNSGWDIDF
Mitogen-activated protein kinase 8 (Homo sapiens), sequence (P45983 whole entry): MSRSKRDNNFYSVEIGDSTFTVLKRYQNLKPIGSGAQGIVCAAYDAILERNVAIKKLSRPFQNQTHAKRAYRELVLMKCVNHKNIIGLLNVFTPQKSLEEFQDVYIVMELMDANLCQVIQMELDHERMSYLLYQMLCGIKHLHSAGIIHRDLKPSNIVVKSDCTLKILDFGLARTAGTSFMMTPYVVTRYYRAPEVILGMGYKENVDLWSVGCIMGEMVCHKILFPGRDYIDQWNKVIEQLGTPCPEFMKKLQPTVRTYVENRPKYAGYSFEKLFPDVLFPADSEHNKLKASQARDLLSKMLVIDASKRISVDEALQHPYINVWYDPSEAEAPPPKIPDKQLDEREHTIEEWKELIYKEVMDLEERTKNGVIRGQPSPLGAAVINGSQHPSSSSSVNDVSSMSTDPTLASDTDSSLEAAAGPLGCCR
Mitogen-activated protein kinase kinase kinase kinase 1 (Homo sapiens), sequence (Q92918 whole entry, looked up): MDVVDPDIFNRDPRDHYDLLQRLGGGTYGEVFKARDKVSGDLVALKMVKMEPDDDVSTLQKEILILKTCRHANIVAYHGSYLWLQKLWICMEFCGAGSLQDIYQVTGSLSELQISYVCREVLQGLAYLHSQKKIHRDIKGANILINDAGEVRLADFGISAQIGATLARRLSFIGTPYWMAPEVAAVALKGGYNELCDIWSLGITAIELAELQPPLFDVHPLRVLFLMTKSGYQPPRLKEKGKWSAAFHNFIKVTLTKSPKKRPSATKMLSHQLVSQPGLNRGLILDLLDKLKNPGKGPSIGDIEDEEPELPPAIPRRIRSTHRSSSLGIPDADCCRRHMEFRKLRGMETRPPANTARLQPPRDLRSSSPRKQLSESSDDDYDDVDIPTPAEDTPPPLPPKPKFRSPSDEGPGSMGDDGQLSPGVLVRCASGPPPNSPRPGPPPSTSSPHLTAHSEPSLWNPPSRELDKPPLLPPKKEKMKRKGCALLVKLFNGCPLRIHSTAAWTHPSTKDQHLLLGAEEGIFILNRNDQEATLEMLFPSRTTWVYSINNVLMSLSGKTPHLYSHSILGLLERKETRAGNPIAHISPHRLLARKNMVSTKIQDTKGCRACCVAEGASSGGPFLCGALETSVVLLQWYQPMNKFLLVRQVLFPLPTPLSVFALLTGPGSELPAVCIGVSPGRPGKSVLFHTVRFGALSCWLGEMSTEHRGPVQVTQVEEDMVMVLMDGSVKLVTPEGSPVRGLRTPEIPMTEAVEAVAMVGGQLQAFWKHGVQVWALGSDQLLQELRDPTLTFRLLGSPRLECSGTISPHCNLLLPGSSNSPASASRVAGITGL
Serine/threonine-protein kinase 10 (Homo sapiens), sequence (O94804 whole entry, looked up): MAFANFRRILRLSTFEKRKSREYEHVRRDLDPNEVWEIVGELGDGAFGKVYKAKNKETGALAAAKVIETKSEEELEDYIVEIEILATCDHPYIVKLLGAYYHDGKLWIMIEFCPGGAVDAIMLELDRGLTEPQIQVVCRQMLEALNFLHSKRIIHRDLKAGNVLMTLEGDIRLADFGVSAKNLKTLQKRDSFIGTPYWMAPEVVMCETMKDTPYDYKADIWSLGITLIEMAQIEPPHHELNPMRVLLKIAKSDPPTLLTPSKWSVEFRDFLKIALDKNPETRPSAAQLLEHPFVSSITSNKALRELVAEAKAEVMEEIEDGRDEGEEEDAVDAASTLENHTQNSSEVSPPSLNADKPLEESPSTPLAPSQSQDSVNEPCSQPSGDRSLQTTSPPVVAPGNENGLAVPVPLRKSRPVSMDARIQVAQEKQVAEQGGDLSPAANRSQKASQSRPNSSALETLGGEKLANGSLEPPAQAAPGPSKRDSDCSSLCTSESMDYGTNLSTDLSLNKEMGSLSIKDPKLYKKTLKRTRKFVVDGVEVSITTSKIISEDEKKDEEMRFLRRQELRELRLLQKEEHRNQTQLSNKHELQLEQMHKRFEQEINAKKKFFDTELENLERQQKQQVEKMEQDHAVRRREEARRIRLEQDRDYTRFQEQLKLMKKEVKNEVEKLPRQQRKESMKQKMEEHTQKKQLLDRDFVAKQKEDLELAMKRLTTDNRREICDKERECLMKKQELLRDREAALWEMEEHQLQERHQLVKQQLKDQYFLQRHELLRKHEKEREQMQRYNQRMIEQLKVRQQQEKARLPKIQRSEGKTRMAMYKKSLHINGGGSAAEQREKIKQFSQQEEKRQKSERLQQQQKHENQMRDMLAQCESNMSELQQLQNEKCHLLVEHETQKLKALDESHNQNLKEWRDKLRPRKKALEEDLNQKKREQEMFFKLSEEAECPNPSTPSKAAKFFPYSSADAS

CN(C)CC#Cc1ccc(OCCCc2sc(N3CCc4cccc(C(=O)Nc5nc6ccccc6s5)c4C3)nc2C(=O)O)c(F)c1 [A-1155463]
Ki ([1]; read-out: Ki): 1140 nM
Ki ([1]; read-out: pKi (converted)): 1070 nM
Ki [2]: 806 nM
residual activity [3]: 69%
residual activity [4]: 92%
residual activity [5]: 90%
residual activity [6]: 94%
residual activity [7]: 100%
residual activity [8]: 100%
residual activity [9]: 94%
residual activity [10]: 100%
residual activity [11]: 100%
residual activity [12]: 89%
residual activity [13]: 100%
residual activity [14]: 84%
residual activity [15]: 100%
residual activity [16]: 96%
residual activity [17]: 93%
residual activity [18]: 77%
residual activity [19]: 62%
residual activity [20]: 100%
residual activity [21]: 100%
residual activity [22]: 76%
residual activity [23]: 88%
residual activity [24]: 100%
residual activity [25]: 80%
residual activity [26]: 98%
residual activity [27]: 94%
residual activity [28]: 68%
residual activity [29]: 100%
residual activity [30]: 100%
residual activity [31]: 100%
residual activity [32]: 100%
residual activity [33]: 100%
residual activity [34]: 100%
residual activity [35]: 90%
inhibition [36]: 24.6%
inhibition [37]: 42.9%
inhibition [38]: -3.11%
